Our source for the EC50 values is patent publication US20230340530A1, “Methods of Protecting RNA” (Pfizer Inc., priority 2020, published 2023).

For this test, the target named is RNA samples (Chi18 or HCV IRES). Description: Droplet Digital Polymerase Chain Reaction (ddPCR) assay of RNA protection. Particulars: 50 mM Tris buffer pH 11.4, 16 hrs at 30° C. for Chi18 or 42° C. for HCV; table does not say which RNA; 600 µM to 0.018 µM compound, 2% DMSO; read-out: EC50 Values Obtained from the ddPCR Assay. Format: biochemical. As for the experimental part: The ddPCR assays measured RNA integrity by converting intact RNA to cDNA by reverse transcription, then performing digital PCR in thousands of nanoliter-sized droplets for each sample. PCR was performed within each droplet, which allowed for more sensitive detection of subtle changes in RNA concentration compared to traditional PCR or qPCR. Additionally, primers/probes specific to the 5′ end of the RNA/cDNA transcript(s) were used to assess fragment integrity, i.e. degraded RNA had fewer 5′ positive droplets. The BioRad QX200 Droplet Digital PCR System was used for the ddPCR workflow.
RNA samples (Chi18 or HCV IRES) were diluted to 100 fg/µL in 50 mM Tris buffer pH 11.4. Boron compounds were tested in a dose-response format to determine EC50. A compound dilution plate that contained a 30 mM top concentration of compound in DMSO was serially (half-log) diluted 10 times. A quantity of 0.12 µL of this compound dilution plate was spotted into a 96-well PCR plate (Thermo). Sample RNAs were added (6 µL) and incubated with test compounds as described below. Final compound concentrations ranged from 600 µM to 0.018 µM in 2% DMSO.
For the degradation reaction, treated RNAs were incubated for 16 hrs at 30° C. for Chi18 samples or 42° C. for HCV samples. Upon completion of the degradation reaction, cDNA was made and ddPCR run for each sample (96 well plates). Positive 5′ droplet values were divided by the total accepted droplet values for each sample and a ratio value generated for each sample.
Data was imported into a database where percent (%) protection and compound EC50 were calculated and curated. […] EC50 was determined by using a four parameter logistic equation: Y=A+((B-A)/(1+(C/X)D)); where Y is percent protection, X is compound concentration, A and B are minimum and maximum asymptotes, respectively, C is EC50, and D is Hill slope.

Usually EC50 stands for the concentration giving half of the maximal effect. As for `CN(C)c1cc(NC(=O)c2ccc3c(c2)B(O)OC3(C)C)c(O)c2c1C[C@H]1C[C@H]3[C@H](N(C)C)C(O)=C(C(N)=O)C(=O)[C@@]3(O)C(O)=C1C2=O` [PF-06967791, N-[(5aR,6aS,7S,1 OaS)-9-carbamoyl-4,7-bis(dimethylamino)-1,8,10a,11-tetrahydroxy-10,12-dioxo-5,5a,6,6a,7,10,10a,12-octahydrotetracen-2-yl]-1-hydroxy-3,3-dimethyl-1,3-dihydro-2,1-benzoxaborole-6-carboxamide], the EC50 amounted to 55.6 µM.
The figure for `CN(C)/C(O)=C/C1=[O+][B-](F)(F)Oc2cc(O)ccc21` [PF-03806704, {(2Z)-3-(dimethylamino)-3-hydroxy-1-[4-hydroxy-2-(hydroxy-kappaO)phenyl]prop-2-en-1-onato-kappaO}(difluorido)boron] is 323 µM; for `C[C@H]1c2ccc(NCCC(=O)Nc3ccc4c(c3)B(O)OCC4)c(O)c2C(=O)C2=C(O)[C@]3(O)C(=O)C(C(N)=O)=C(O)[C@@H](N(C)C)[C@@H]3[C@@H](O)[C@@H]21` [PF-06968237, (4S,4aR,5S,5aR,6R,12aS)-4-(dimethylamino)-3,5,10,12,12a-pentahydroxy-9-({3-[(1-hydroxy-3,4-dihydro-1H-2,1-benzoxaborinin-7-yl)amino]-3-oxopropyl}amino)-6-methyl-1,11-dioxo-1,4,4a,5,5a,6,11,12a-octahyd rotetracene-2-carboxamide] it is 166 µM; for `O=C(OB(c1cccc(F)c1)c1cccc(F)c1)c1ncccc1O` [PF-06956417] it is 430 µM.
The same measure for `C[C@H]1c2c(NC(=O)c3ccc4c(c3)B(O)OC4)ccc(O)c2C(=O)C2=C(O)[C@]3(O)C(=O)C(C(N)=O)=C(O)[C@@H](N(C)C)[C@@H]3[C@@H](O)[C@@H]21` [PF-06968384, N-[(6aS,10S,10aR,11S,11aR, 12R)-8-carbamoyl-10-(dimethylamino)-4,6,6a,9,11-pentahydroxy-12-methyl-5,7-dioxo-5,6a,7,10,10a,11,11a,12-octahydrotetracen-1-yl]-1-hydroxy-1,3-dihydro-2,1-benzoxaborole-6-car boxamide]: 281 µM; for `Clc1cc2c(cc1Cl)OB(c1ccc(Br)cc1)O2` [PF-04009301, 2-(4-bromophenyl)-5,6-dichloro-2H-1,3,2-benzodioxaborole]: 474 µM; for `Cc1cccnc1N(C(=O)c1ccc([B-](F)(F)F)cc1)[C@@H]1CCCN(C(=O)OC(C)(C)C)C1` [PF-06875313, (4-{[(3R)-1-(tert-butoxycarbonyl)piperidin-3-yl](3-methylpyridin-2-yl)carbamoyl}phenyl)(trifluor ido)borate(1-)]: 360 µM.
`CN(C)Cc1ccc(B(Oc2cccc3cccnc23)c2cccc(C#N)c2)cc1Cl` [PF-06956816, quinolin-8-yl {3-chloro-4-[(dimethylamino)methyl]phenyl}(3-cyanophenyl)borinate]: the EC50 turned out to be 137 µM.
The same measure for `CN1CCN(Cc2ccc(B(Oc3cccc4cccnc34)c3ccc(C#N)c(Cl)c3)cc2F)CC1` [PF-06956823, quinolin-8-yl (3-chloro-4-cyanophenyl){3-fluoro-4-[(4-methylpiperazin-1-yl)methyl]phenyl}borinate]: 175 µM; for `CN1CCN(Cc2ccc(B(Oc3cccc4cccnc34)c3ccc(C#N)c(Cl)c3)cc2)CC1` [PF-06956831, quinolin-8-yl (3-chloro-4-cyanophenyl){4-[(4-methylpiperazin-1-yl)methyl]phenyl}borinate]: 242 µM.
The figure for `CC(C)(C)OC(=O)NCCC[B-](F)(F)F` [PF-06934734, {3-[(tert-butoxycarbonyl)amino]propyl}(trifluorido)borate(1-)] is 302 µM; for `C[C@H]1c2ccc(NC(=O)c3ccc4c(c3)B(O)OC4)c(O)c2C(=O)C2=C(O)[C@]3(O)C(=O)C(C(N)=O)=C(O)[C@@H](N(C)C)[C@@H]3[C@@H](O)[C@@H]21` [PF-06968126, N-[(5R,5aR6S,6aR,7S,10aS)-9-carbamoyl-7-(dimethylamino)-1,6,8,10a,11-pentahydroxy-5-methyl-10,12-dioxo-5,5a,6,6a,7,10,10a,12-octahydrotetracen-2-yl]-1-hydroxy-1,3-dihydro-2,1-benzoxaborole-6-carboxamide] it is 393 µM; for `CC1(C)COC(c2cccc(B(Oc3cccc4cccnc34)c3cccc(F)c3)c2)=N1` [PF-06956596, quinolin-8-yl [3-(4,4-dimethyl-4,5-dihydro-1,3-oxazol-2-yl)phenyl](3-fluorophenyl)borinate] it is 300 µM.
The same measure for `C[C@H]1c2ccc(NC(=O)CCC(=O)NC[C@H]3CCB(O)O3)c(O)c2C(=O)C2=C(O)[C@]3(O)C(=O)C(C(N)=O)=C(O)[C@@H](N(C)C)[C@@H]3[C@@H](O)[C@@H]21` (racemic) [PF-06968488, N~1~-[(5RS,5aRS,6SR,6aRS,7S R,10aSR)-9-carbamoyl-7-(dimethylamino)-1,6,8,10a,11-pentahydroxy-5-methyl-10,12-dioxo-5,5a,6,6a,7,10,10a,12-octahydrotetracen-2-yl]-N~4~-{[(5RS)-2-hydroxy-1,2-oxaborolan-5-y I]methyl}butanediamide]: 189 µM.
With `CN(C)/C(O)=C/C1=[O+][B-](F)(F)OC=C1c1ccccc1` [PF-03696713, [(1Z)-1-(dimethylamino)-1-hydroxy-5-(hydroxy-kappaO)-4-phenylpenta-1,4-dien-3-onato-kappaO](difluorido)boron], the EC50 is 400 µM.
The figure for `Cc1cc(CNc2nc(N3CCC[C@@H](c4ccccc4C)C3)nc3[nH]ccc23)on1` [PF-00838447, N-[(3-methyl-1,2-oxazol-5-yl)methyl]-2-[(3S)-3-(2-methylphenyl)piperidin-1-yl]-7H-pyrrolo[2,3-d]pyrimidin-4-amine] is 388 µM; for `C=C(CN(C)Cc1ccccc1)[B-](F)(F)F` [PF-06840997, {3-[benzyl(methyl)amino]prop-1-en-2-yl}(trifluorido)borate(1-)] it is 306 µM.
The figure for `C[C@H]1c2ccc(NC(=O)c3ccc4c(c3)B(O)OC4(C)C)c(O)c2C(=O)C2=C(O)[C@]3(O)C(=O)C(C(N)=O)=C(O)[C@@H](N(C)C)[C@@H]3[C@@H](O)[C@@H]21` [PF-06968101, N-[(5R,5aR,6S,6aR,7S,10aS)-9-carbamoyl-7-(dimethylamino)-1,6,8,10a,11-pentahydroxy-5-methyl-10,12-dioxo-5,5a,6,6a,7,10,10a,12-octahydrotetracen-2-yl]-1-hydroxy-3,3-dimethyl-1,3-dihydro-2,1-benzoxaborole-6-carboxamide] is 162 µM.
Take `OB(c1ccc(Cl)cc1)c1ccc(Cl)cc1` [PF-05690484, bis(4-chlorophenyl)borinic acid]: the EC50 turned out to be 355 µM.
The same measure for `O=C(O)C[C@@H]1OB(O)c2cccc(B(O)O)c21` [PF-06961361, [(3S)-4-borono-1-hydroxy-1,3-dihydro-2,1-benzoxaborol-3-yl]acetic acid]: 226 µM; for `O=C(Nc1ccc2c(c1)B(O)OC2)c1ccccc1` [PF-06957640, N-(1-hydroxy-1,3-dihydro-2,1-benzoxaborol-6-yl)benzamide]: 266 µM; for `C[C@H]1c2ccc(NC(=O)CCC(=O)Nc3ccc4c(c3)B(O)OC4)c(O)c2C(=O)C2=C(O)[C@]3(O)C(=O)C(C(N)=O)=C(O)[C@@H](N(C)C)[C@@H]3[C@@H](O)[C@@H]21` [PF-06968256, N-1-[(5R,5aR,6S,6aR,7S,10aS)-9-carbamoyl-7-(dimethylamino)-1,6,8,10a,11-pentahydroxy-5-methyl-10,12-dioxo-5,5a,6,6a,7,10,10a,12-octahydrotetracen-2-yl]-N~4~-(1-hydroxy-1,3-dihydro-2,1-benzoxaborol-6-yl)butanediamide]: 75.7 µM.
On to `CN1CCN(Cc2ccc([B@@-]3(c4ccc(C#N)cc4)Oc4cccc5ccc[n+]3c45)cc2Cl)CC1` [PF-06956838, {3-chloro-4-[(4-methylpiperazin-1-yl)methyl]phenyl}(4-cyanophenyl)(quinolin-8-olato-kappa-2-N,O)boron], for which the EC50 was 207 µM.
The same measure for `BBBBBBBBBB1C(Cc2ccc(O)cc2)=C1Cc1ccc(O)cc1` [PF-01914444, 4,4′-{[1-(nonaboran-1-yl)-1H-borirene-2,3-diyl]bis(methylene)}diphenol]: 488 µM.
The figure for `CN(C)c1cc(NC(=O)CCNC(=O)c2ccc3c(c2)COB3O)c(O)c2c1C[C@H]1C[C@H]3[C@H](N(C)C)C(O)=C(C(N)=O)C(=O)[C@@]3(O)C(O)=C1C2=O` [PF-06967772, N-(3-{[(5aR,6aS,7S,10aS)-9-carbamoyl-4,7-bis(dimethylamino)-1,8,10a,11-tetrahydroxy-10,12-dioxo-5,5a,6,6a,7,10,10a,12-octahydrotetracen-2-yl]amino}-3-oxopropyl)-1-hydroxy-1,3-dihydro-2,1-benzoxaborole-5-carboxamide] is 286 µM.
